According to US20090004261A1, “PHARMACEUTICAL COMPOSITION FOR ORAL ADMINISTRATION OF A PYRAZOLE-3-CARBOXAMIDE DERIVATIVE” (Sanofi-aventis, priority 2003, published 2009):
Converted amounts (≈) assume the structure as drawn.

What was measured:
Solubility in water = type: physicochemical; conditions: pH=6.5
Experimental: (§1) These compounds are molecules that are very sparingly soluble in water, respectively: 0.1 μg/ml and 1 μg/l at pH=6.5. Furthermore, these compounds have high membrane permeability coefficients: respectively, 78×10^−7 cm/s and 96×10^−7 cm/s on the CaCO2 cell model, as described by M. C. Gres et al. in Pharmaceutical Research, […], 15(5), 726-7333.

[1] = Membrane permeability coefficient on the CaCO2 cell model; type: in vitro ADME; conditions: human, Caco-2
Experimental: as §1

Structure (SMILES) | solubility (Solubility in water) | Papp [1]
CCc1c(C(=O)NN2CCCCC2)nn(-c2ccc(Cl)cc2Cl)c1-c1ccc(Br)cc1 [Compound A, N-Piperidino-5-(4-bromophenyl)-1-(2,4-dichlorophenyl)-4-ethylpyrazole-3-carboxamide] | 0.1 µg/mL (≈ 0.191 µM) | 7.8 ×10⁻⁶ cm/s
Cc1c(C(=O)NN2CCCCC2)nn(-c2ccc(Cl)cc2Cl)c1-c1ccc(Cl)cc1 [Compound B, N-Piperidino-5-(4-chlorophenyl)-1-(2,4-dichlorophenyl)-4-methylpyrazole-3-carboxamide, reference compound] | – | 9.6 ×10⁻⁶ cm/s
